Patent US9139569B2, “Fused tricyclic aryl compounds useful for the treatment of viral diseases” (Merck Sharp & Dohme Corp., priority 2009, dated 2015)

Key:
HCV replicon genotype 1a = assay: Cell-based HCV replicon assay, genotype 1a; details: Hepatitis C virus, 72 h, HCV replicon cells, replicon RNA by real time PCR on day 3, read-out: EC50 (nM) (gt1a)
Method: (§1) To measure cell-based anti-HCV activity of selected compounds of the present invention, replicon cells were seeded at 5000 cells/well in 96-well collagen I-coated Nunc plates in the presence of the test compound. Various concentrations of test compound, typically in 10 serial 2-fold dilutions, were added to the assay mixture, with the starting concentration ranging from 250 μM to 1 μM. The final concentration of DMSO was 0.5%, fetal bovine serum was 5%, in the assay media. Cells were harvested on day 3 by the addition of 1× cell lysis buffer (Ambion cat #8721). The replicon RNA level was measured using real time PCR (Taqman assay). The amplicon was located in 5B. The PCR primers were: 5B.2F, ATGGACAGGCGCCCTGA (SEQ. ID NO. 1); 5B.2R, […] (SEQ. ID NO. 2); the probe sequence was FAM-labeled CACGCCATGCGCTGCGG (SEQ. ID NO. 3). GAPDH RNA was used as endogenous control and was amplified in the same reaction as NS5B (multiplex PCR) using primers and VIC-labeled probe recommended by the manufacturer (PE Applied Biosystem). The real-time RT-PCR reactions were run on ABI PRISM 7900HT Sequence Detection System using the following program: 48° C. for 30 min, 95° C. for 10 min, 40 cycles of 95° C. for 15 sec, 60° C. for 1 min. The ACT values (CT5B-CTGAPDH) were plotted against the concentration of test compound and fitted to the sigmoid dose-response model using XLfit4 (MDL). EC50 was defined as the concentration of inhibitor necessary to achieve ΔCT=1 over the projected baseline; EC90 the concentration necessary to achieve ΔCT=3.2 over the baseline. Alternatively, to quantitate the absolute amount of replicon RNA, a standard curve was established by including serially diluted T7 transcripts of replicon RNA in the Taqman assay. All Taqman reagents were from PE Applied Biosystems. Such an assay procedure was described in detail in e.g. Malcolm et al., Antimicrobial Agents and Chemotherapy 50: 1013-1020 (2006).
(§2) HCV replicon assay data was calculated for genotypes 1a, 1b, 2a and 3a for selected compounds of the present invention using this method and is provided in the table below.

HCV replicon genotype 3a = assay: Cell-based HCV replicon assay, genotype 3a; details: Hepatitis C virus, 72 h, HCV replicon cells, replicon RNA by real time PCR on day 3, read-out: EC50 (nM) (gt3a)
Method: To measure cell-based anti-HCV activity of selected compounds of the present invention, replicon cells were seeded at 5000 cells/well in 96-well collagen I-coated Nunc plates in the presence of the test compound. Various concentrations of test compound, typically in 10 serial 2-fold dilutions, were added to the assay mixture, with the starting concentration ranging from 250 μM to 1 μM. The final concentration of DMSO was 0.5%, fetal bovine serum was 5%, in the assay media. Cells were harvested on day 3 by the addition of 1× cell lysis buffer (Ambion cat #8721). The replicon RNA level was measured using real time PCR (Taqman assay). The amplicon was located in 5B. The PCR primers were: 5B.2F, ATGGACAGGCGCCCTGA (SEQ. ID NO. 1); 5B.2R, […] (SEQ. ID NO. 2); the probe sequence was FAM-labeled CACGCCATGCGCTGCGG (SEQ. ID NO. 3). GAPDH RNA was used as endogenous control and was amplified in the same reaction as NS5B (multiplex PCR) using primers and VIC-labeled probe recommended by the manufacturer (PE Applied Biosystem). […] Alternatively, to quantitate the absolute amount of replicon RNA, a standard curve was established by including serially diluted T7 transcripts of replicon RNA in the Taqman assay. […]
as §2

HCV replicon genotype 2a = assay: Cell-based HCV replicon assay, genotype 2a; details: Hepatitis C virus, 72 h, HCV replicon cells, replicon RNA by real time PCR on day 3, read-out: EC50 (nM) (gt2a)
Method: as §1, §2

HCV replicon genotype 1b = assay: Cell-based HCV replicon assay, genotype 1b; details: Hepatitis C virus, 72 h, HCV replicon cells, replicon RNA by real time PCR on day 3, read-out: EC50 (nM) (gt1b)
Method: as §1, §2

Compound: COC(=O)N[C@H](C(=O)N1CCC[C@H]1c1ncc(-c2ccc3cc4cc(-c5cnc([C@@H]6CCCN6C(=O)[C@@H](NC(=O)OC)C(C)C)[nH]5)ccc4cc3c2)[nH]1)C(C)C [Compound 36]
- EC50 (HCV replicon genotype 1a): 0.001 nM
- EC50 (HCV replicon genotype 3a): 0.01 nM
- EC50 (HCV replicon genotype 2a): 0.039 nM

Compound: COC(=O)N[C@H](C(=O)N1CCC[C@H]1c1ncc(-c2ccc3nc4cc(-c5cnc([C@@H]6CCCN6C(=O)[C@@H](NC(=O)OC)C(C)C)[nH]5)ccc4cc3c2)[nH]1)C(C)C [Compound 37]
- EC50 (HCV replicon genotype 1a): 0.047 nM
- EC50 (HCV replicon genotype 3a): 0.04 nM
- EC50 (HCV replicon genotype 2a): 0.71 nM
- EC50 (HCV replicon genotype 1b): 0.001 nM

Compound: COC(=O)N[C@H](C(=O)N1CCC[C@H]1c1ncc(-c2ccc3nc4cc(-c5cnc([C@@H]6CCCN6C(=O)[C@@H](NC(=O)OC)C(C)C)[nH]5)ccc4nc3c2)[nH]1)C(C)C [Compound 38]
- EC50 (HCV replicon genotype 1a): 0.035 nM
- EC50 (HCV replicon genotype 1b): 0.015 nM

Compound: COC(=O)N[C@H](C(=O)N1CCC[C@H]1c1ncc(-c2cc3cc4oc(-c5cnc([C@@H]6CCCN6C(=O)[C@@H](NC(=O)OC)C(C)C)[nH]5)cc4cc3o2)[nH]1)C(C)C [Compound 39]
- EC50 (HCV replicon genotype 1a): 0.02 nM
- EC50 (HCV replicon genotype 2a): 0.05 nM
- EC50 (HCV replicon genotype 1b): 0.001 nM
